Reference: US20240247080A1, “GLP1/GIP/NPY2 RECEPTOR TRIPLE AGONISTS” (Boehringer Ingelheim International GmbH, priority 2022, published 2024)
Where two headings read alike, the source gives them in different places. Starred links: 1 amine or outer side, 2 acyl side, 3 side chain; linkers in the order of their positions; H or OH if unused. Non-standard residues stand in square brackets, D forms with d. Groups on a side chain read outwards from the residue. *: point of attachment. C20 diacid = O=C(O)CCCCCCCCCCCCCCCCCCC(=O)*; C18 diacid = O=C(O)CCCCCCCCCCCCCCCCC(=O)*; γGlu = O=C(O)[C@H](CCC(=O)[*:2])N[*:1]; εLys = N[C@@H](CCCCN[*:1])C(=O)[*:2]; AEEA = NCCOCCOCC(=O)O; Aib = CC(C)(N)C(=O)O

Columns and labels:
Assay type in all cases: cell-based
Details in all cases: CreLuc reporter gene assay
[1] = target: T1, hGIPR (Homo sapiens, UniProt P48546); test: hGIPR CreLuc reporter gene assay in 0.5% and 100% plasma
T1 construct: expressed in transfected cells; host or cells: CHO cells carrying a CRE-luciferase reporter gene
T1 sequence (P48546 22-466): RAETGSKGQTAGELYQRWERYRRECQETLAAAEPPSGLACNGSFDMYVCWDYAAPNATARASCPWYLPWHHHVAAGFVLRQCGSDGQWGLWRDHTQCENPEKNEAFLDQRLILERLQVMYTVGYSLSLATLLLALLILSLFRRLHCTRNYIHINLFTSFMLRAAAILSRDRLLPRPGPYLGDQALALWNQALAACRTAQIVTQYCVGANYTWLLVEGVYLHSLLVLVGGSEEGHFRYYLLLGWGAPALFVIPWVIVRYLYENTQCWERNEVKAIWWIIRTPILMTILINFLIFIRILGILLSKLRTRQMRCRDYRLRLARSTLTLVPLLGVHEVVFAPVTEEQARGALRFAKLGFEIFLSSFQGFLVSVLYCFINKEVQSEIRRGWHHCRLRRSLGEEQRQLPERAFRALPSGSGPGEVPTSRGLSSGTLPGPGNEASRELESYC
Method in brief: (§1)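 Agonist EC50s came from 8-concentration curves over four decades, fitted by non-linear variable-slope regression of CRE-driven luciferase luminescence. Cells were exposed 4 h at 37 °C, in buffer with 0.5% human plasma or in 100% plasma; GIPR was expressed in CHO cells, GLP-1R and NPY2R in HEK cells.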

[2] = target: T2, hGLP1R (Homo sapiens, UniProt P43220); test: hGLP1R CreLuc reporter gene assay in 0.5% and 100% plasma
T2 construct: expressed in transfected cells; host or cells: HEK-293 cells carrying a CRE-luciferase reporter gene
Method in brief: as §1

[3] = target: T3, hNPY2R (Homo sapiens, UniProt P49146); test: hNPY2R CreLuc reporter gene assay in 0.5% and 100% plasma
T3 construct: expressed in transfected cells; host or cells: HEK-293 cells carrying a CRE-luciferase reporter gene
T3 sequence (P49146 1-381): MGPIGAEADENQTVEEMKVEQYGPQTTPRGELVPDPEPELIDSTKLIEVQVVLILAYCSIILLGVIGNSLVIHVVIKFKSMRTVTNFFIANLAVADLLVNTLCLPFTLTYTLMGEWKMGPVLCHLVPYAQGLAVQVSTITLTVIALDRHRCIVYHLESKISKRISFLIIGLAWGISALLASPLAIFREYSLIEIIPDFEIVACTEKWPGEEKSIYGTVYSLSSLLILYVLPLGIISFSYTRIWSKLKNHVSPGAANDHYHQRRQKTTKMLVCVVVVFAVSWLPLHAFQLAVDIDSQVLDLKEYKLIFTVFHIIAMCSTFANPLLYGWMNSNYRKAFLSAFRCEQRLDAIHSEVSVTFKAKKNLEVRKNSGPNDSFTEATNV
Method in brief: as §1

[4] = 0.5% human plasma, read-out: hGIPR 0.5% hP
[5] = 0.5% human plasma, read-out: hGLP1R 0.5% hP
[6] = 0.5% human plasma, read-out: hNPY2R 0.5% hP
[7] = 100% human plasma, read-out: hNPY2R 100% hP
[8] = 100% human plasma, read-out: hGIPR 100% hP
[9] = 100% human plasma, read-out: hGLP1R 100% hP

T2 sequence (P43220 24-463): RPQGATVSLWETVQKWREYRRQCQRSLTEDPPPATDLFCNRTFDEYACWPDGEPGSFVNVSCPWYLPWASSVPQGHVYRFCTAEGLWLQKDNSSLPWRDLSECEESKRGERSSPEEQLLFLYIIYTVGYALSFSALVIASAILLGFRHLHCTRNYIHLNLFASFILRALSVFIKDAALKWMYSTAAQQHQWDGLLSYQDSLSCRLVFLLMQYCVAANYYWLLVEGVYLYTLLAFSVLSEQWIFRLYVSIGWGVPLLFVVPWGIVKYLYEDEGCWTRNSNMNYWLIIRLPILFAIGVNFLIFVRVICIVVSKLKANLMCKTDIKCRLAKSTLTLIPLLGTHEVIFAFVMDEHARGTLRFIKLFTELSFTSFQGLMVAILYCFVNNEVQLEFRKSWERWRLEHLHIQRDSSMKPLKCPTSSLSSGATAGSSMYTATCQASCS

Compound	EC50 [1, 4] [nM]	EC50 [2, 5] [nM]	EC50 [3, 6] [nM]	EC50 [3, 7] [nM]	EC50 [1, 8] [nM]	EC50 [2, 9] [nM]	EC50 ([1]; hGIPR 0.5% hP, 0.5% human plasma) [nM]	EC50 ([2]; hGLP1R 0.5% hP, 0.5% human plasma) [nM]	EC50 ([3]; hNPY2R 100% hP, 100% human plasma) [nM]
CC[C@H](C)[C@H](NC(=O)[C@H](CC(C)C)NC(=O)[C@H](Cc1c[nH]c2ccccc12)NC(=O)[C@H](CCC(N)=O)NC(=O)[C@@H](NC(=O)[C@H](Cc1ccccc1)NC(=O)[C@H](CCC(=O)O)NC(=O)C(C)(C)NC(=O)[C@H](CCC(N)=O)NC(=O)[C@H](C)NC(=O)[C@H](CCC(N)=O)NC(=O)[C@H](CCCCN)NC(=O)[C@H](CCC(=O)O)NC(=O)[C@H](CC(C)C)NC(=O)C(C)(C)NC(=O)[C@@H](NC(=O)[C@H](CO)NC(=O)[C@H](Cc1ccc(O)cc1)NC(=O)[C@H](CC(=O)O)NC(=O)[C@H](CO)NC(=O)[C@@H](NC(=O)[C@H](Cc1ccccc1)NC(=O)[C@@H](NC(=O)CNC(=O)[C@H](CCC(=O)O)NC(=O)C(C)(C)NC(=O)[C@@H](N)Cc1ccc(O)cc1)[C@@H](C)O)[C@@H](C)O)[C@@H](C)CC)C(C)C)C(=O)N[C@@H](CCCCNC(=O)[C@H](CCC(=O)O)NC(=O)[C@H](CCC(=O)O)NC(=O)[C@H](CCC(=O)O)NC(=O)[C@H](CCC(=O)O)NC(=O)[C@H](CCC(=O)O)NC(=O)CCCCCCCCCCCCCCCCC(=O)O)C(=O)NCC(=O)NCC(=O)N1CCC[C@H]1C(=O)N[C@@H](CO)C(=O)N[C@@H](CCC(=O)O)C(=O)NCC(=O)N[C@@H](C)C(=O)N[C@@H](CO)C(=O)N[C@@H](CC(C)C)C(=O)N[C@@H](CCCNC(=N)N)C(=O)N[C@@H](Cc1c[nH]cn1)C(=O)N[C@@H](Cc1ccc(O)cc1)C(=O)N[C@@H](Cc1ccc(O)cc1)C(=O)N[C@@H](CC(N)=O)C(=O)N[C@@H](Cc1c[nH]c2ccccc12)C(=O)N[C@@H](CC(C)C)C(=O)N[C@H](C(=O)N[C@@H](CCCNC(=N)N)C(=O)N[C@@H](CCC(N)=O)C(=O)N[C@@H](CCCNC(=N)N)C(=O)N[C@@H](Cc1ccc(O)cc1)C(N)=O)[C@@H](C)O [Compound 176, Y-Aib-E-G-T-F-T-S-D-Y-S-I-Aib-L-E-K-Q-A-Q-Aib-E-F-V-Q-W-L-I-K(1,3)-GGPSEGASLRHYYNWLTRQRY-NH2.C18DA-E-E-E-E-E(1,2)]	0.68	0.29	30.4	197					
H-Y[Aib]EGTFTSDYSI[Aib]LEKQAQ[Aib]AFVEWLIK([εLys-γGlu-γGlu-γGlu-γGlu-γGlu-γGlu-C20 diacid])GGPSSGASLRHYLNL[Aib]TRQRY-NH2 [Compound 17, Y-Aib-E-G-T-F-T-S-D-Y-S-I-Aib-L-E-K-Q-A-Q-Aib-A-F-V-E-W-L-I-K(1,3)-G-G-P-S-S-G-A-S-L-R-H-Y-L-N-L-Aib-T-R-Q-R-Y-NH2.C20DA-gGlu-gGlu-gGlu-gGlu-gGlu-gGlu-eLys(1,2)]	0.43	0.14	> 100						
H-Y[Aib]EGTFTSDYSI[Aib]LEKQAQ[Aib]AFVEWLIK([γGlu-γGlu-γGlu-γGlu-γGlu-γGlu-C20 diacid])GGGSEYVSLRHYYNWLTRQRY-NH2 [Compound 65, Y-Aib-E-G-T-F-T-S-D-Y-S-I-Aib-L-E-K-Q-A-Q-Aib-A-F-V-E-W-L-I-K(1,3)-GGGSEYVSLRHYYNWLTRQRY-NH2.C20DA-gGlu-gGlu-gGlu-gGlu-gGlu-gGlu(1,2)]	1.03	2.65	11						
H-Y[Aib]EGTFTSDYSI[Aib]LEKQAQ[Aib]AFVQWLIK([AEEA-AEEA-γGlu-γGlu-γGlu-γGlu-γGlu-C20 diacid])GGPSSGASLRHYYNWLTRQRY-NH2 [Compound 112, Y-Aib-E-G-T-F-T-S-D-Y-S-I-Aib-L-E-K-Q-A-Q-Aib-A-F-V-Q-W-L-I-K(1,3)-GGPSSGASLRHYYNWLTRQRY-NH2.C20DA-gGlu-gGlu-gGlu-gGlu-gGlu-OEG-OEG(1,2)]	0.19	0.06		27.6	0.83	1.7			
H-Y[Aib]EGTFTSDYSI[Aib]LEKQAQ[Aib]AFVEWLIK([γGlu-γGlu-γGlu-γGlu-C18 diacid])GGPSEGASLRHYYNWLTRQRY-NH2 [Compound 294, Y-Aib-E-G-T-F-T-S-D-Y-S-I-Aib-L-E-K-Q-A-Q-Aib-A-F-V-E-W-L-I-K(1,3)-GGPSEGASLRHYYNWLTRQRY-NH2.C18DA-gGlu-gGlu-gGlu-gGlu(1,2)]	0.21	0.08		55.2	0.89				
H-Y[Aib]EGTFTSDYSI[Aib]LEKQAQ[Aib]AFVQWLIK([AEEA-AEEA-γGlu-γGlu-γGlu-γGlu-C20 diacid])GGPEEGASLRHYYNWLTRQRY-NH2 [Compound 193, Y-Aib-E-G-T-F-T-S-D-Y-S-I-Aib-L-E-K-Q-A-Q-Aib-A-F-V-Q-W-L-I-K(1,3)-GGPEEGASLRHYYNWLTRQRY-NH2.C20DA-gGlu-gGlu-gGlu-gGlu-OEG-OEG(1,2)]	0.5	0.36	13.6						
H-Y[Aib]EGTFTSDYSI[Aib]LEKQAQ[Aib]AFVQWLIK([Glu-Glu-Glu-Glu-C18 diacid])GGPSEGASLRHYYNWLTRQRY-NH2 [Compound 281, Y-Aib-E-G-T-F-T-S-D-Y-S-I-Aib-L-E-K-Q-A-Q-Aib-A-F-V-Q-W-L-I-K(1,3)-GGPSEGASLRHYYNWLTRQRY-NH2.C18DA-E-E-E-E(1,2)]	0.28	0.07	23		0.69	1.78			
H-Y[Aib]EGTFTSDYSI[Aib]LEKQAQ[Aib]EFVEWLIK([γGlu-γGlu-γGlu-γGlu-γGlu-γGlu-C20 diacid])GGPSSGASLRHYYNWLTRQRY-NH2 [Compound 198, Y-Aib-E-G-T-F-T-S-D-Y-S-I-Aib-L-E-K-Q-A-Q-Aib-E-F-V-E-W-L-I-K(1,3)-GGPSSGASLRHYYNWLTRQRY-NH2.C20DA-gGlu-gGlu-gGlu-gGlu-gGlu-glu(1,2)]	0.26	0.47	13.1						
CC[C@H](C)[C@H](NC(=O)[C@H](CC(C)C)NC(=O)[C@H](Cc1c[nH]c2ccccc12)NC(=O)[C@H](CCC(=O)O)NC(=O)[C@@H](NC(=O)[C@H](Cc1ccccc1)NC(=O)[C@H](C)NC(=O)C(C)(C)NC(=O)[C@H](CCC(N)=O)NC(=O)[C@H](C)NC(=O)[C@H](CCC(N)=O)NC(=O)[C@H](CCCCN)NC(=O)[C@H](CCC(=O)O)NC(=O)[C@H](CC(C)C)NC(=O)C(C)(C)NC(=O)[C@@H](NC(=O)[C@H](CO)NC(=O)[C@H](Cc1ccc(O)cc1)NC(=O)[C@H](CC(=O)O)NC(=O)[C@H](CO)NC(=O)[C@@H](NC(=O)[C@H](Cc1ccccc1)NC(=O)[C@@H](NC(=O)CNC(=O)[C@H](CCC(=O)O)NC(=O)C(C)(C)NC(=O)[C@@H](N)Cc1ccc(O)cc1)[C@@H](C)O)[C@@H](C)O)[C@@H](C)CC)C(C)C)C(=O)N[C@@H](CCCCNC(=O)[C@@H](N)CCCCNC(=O)CC[C@H](NC(=O)CC[C@H](NC(=O)CC[C@H](NC(=O)CC[C@H](NC(=O)CC[C@H](NC(=O)CC[C@H](NC(=O)CCCCCCCCCCCCCCCCCCC(=O)O)C(=O)O)C(=O)O)C(=O)O)C(=O)O)C(=O)O)C(=O)O)C(=O)NCC(=O)NCC(=O)N1CCC[C@H]1C(=O)N[C@@H](CO)C(=O)N[C@@H](CO)C(=O)NCC(=O)N[C@@H](C)C(=O)N[C@@H](CO)C(=O)N[C@H](C(=O)N[C@@H](CCCNC(=N)N)C(=O)N[C@@H](Cc1c[nH]cn1)C(=O)N[C@@H](Cc1ccc(O)cc1)C(=O)N[C@@H](Cc1ccc(O)cc1)C(=O)N[C@@H](CC(N)=O)C(=O)N[C@@H](Cc1c[nH]c2ccccc12)C(=O)N[C@@H](CC(C)C)C(=O)N[C@H](C(=O)N[C@@H](CCCNC(=N)N)C(=O)N[C@@H](CCC(N)=O)C(=O)N[C@@H](CCCNC(=N)N)C(=O)N[C@@H](Cc1ccc(O)cc1)C(N)=O)[C@@H](C)O)C(C)(C)C [Compound 103, Y-Aib-E-G-T-F-T-S-D-Y-S-I-Aib-L-E-K-Q-A-Q-Aib-A-F-V-E-W-L-I-K(1,3)-G-G-P-S-S-G-A-S-Tle-R-H-Y-Y-N-W-L-T-R-Q-R-Y-NH2.C20DA-gGlu-gGlu-gGlu-gGlu-gGlu-gGlu-eLys(1,2)]							0.26	0.13	50.7
